# Measured values: patent US12187816B2, “Macrocyclic compounds and methods of use thereof” (Genentech, Inc., priority 2020, dated 2025)
# Starred links: 1 amine or outer side, 2 acyl side, 3 side chain; linkers in the order of their positions; H or OH if unused. Positions of bridges follow the written chain, without caps; N, C: chain ends. Non-standard residues stand in square brackets, D forms with d. Residues, ends and D or L forms follow the SMILES beside them. *: point of attachment. X14 = Cn1cc2c3c(c[nH]c3c1=O)CN(c1ncc(F)cc1F)c1cc(C(=O)*)c(CS(C)(=O)=O)cc1-2; X11 = CC(=O)N1c2ccc(-c3ccc(C(=O)*)cc3)cc2[C@H](Nc2ccc(Cl)cc2)C[C@@H]1C; JQ1acid = Cc1sc2c(c1C)C(c1ccc(Cl)cc1)=N[C@@H](CC(=O)*)c1nnc(C)n1-2; dPhg(4-(4-Me-thiazol-5-yl)) = Cc1ncsc1-c1ccc([C@@H](N)C(=O)O)cc1; Phg(4-(4-Me-thiazol-5-yl)) = Cc1ncsc1-c1ccc([C@H](N)C(=O)O)cc1; Bip = N[C@@H](Cc1ccc(-c2ccccc2)cc1)C(=O)O; X5 = O=C([C@@H](Cc1ccc(Br)s1)N[*:1])[*:2]; dBip = N[C@H](Cc1ccc(-c2ccccc2)cc1)C(=O)O; X7 = O=C([C@H](Cc1ccc(Br)s1)N[*:1])[*:2]; X4 = O=C([C@H]1CN([*:3])CCN1[*:1])[*:2]; cisHyp = O=C(O)[C@@H]1C[C@H](O)CN1; Hyp = O=C(O)[C@@H]1C[C@@H](O)CN1; Tle = CC(C)(C)[C@H](N)C(=O)O; dDab = NCC[C@@H](N)C(=O)O; dNMeC = CN[C@H](CS)C(=O)O; dDap = NC[C@@H](N)C(=O)O; Dap = NC[C@H](N)C(=O)O; AEA = NCCOCC(=O)O
# Target: T1, BRD4 (Homo sapiens, UniProt O60885)
# T1 construct: Mean 488 intensity of BRD4 quantitated in nuclear region; endogenous in cells; host or cells: EoL-1 eosinophilic leukemia cells
# Assay: BRD4 degradation assay in EOL1 cells (immunofluorescence imaging)
# Format: cell-based
# Conditions: EoL-1 eosinophilic leukemia cells, 4 hours treatment, nuclear BRD4 immunofluorescence
# Description: BRD4 Degradation Assay in EOL1 Cells
# EoL-1 eosinophilic leukemia cells were seeded on day 1 at a density of 45,000 cells per well in Corning PureCoat Amine Microplates, (Corning #354719) in 45 μL/well of assay media (RPMI, 10% FBS, containing L-glutamine). After cells attached to cell plate, compounds were serially diluted ⅓ in dimethylsulfoxide (DMSO) to create 20-point dilutions across a 384 well v-bottom polypropylene microplate (Greiner #781091). 2 μL of each sample from the serial dilution was transferred to 98 μL of assay media as an intermediate dilution. 5 μL of each well of the intermediate dilution was added to 45 μL of cell plate. Columns 1, 2, 23 and 24 were treated with only 0.2% final concentration of DMSO for data normalization as “neutral controls”. After compound treatment, cell plates were stored in a 37° C. incubator for 4 hours. After 4 hours cells were fixed in 3.7% w/v final concentration of paraformaldehyde by addition of 15 μL of 16% w/v paraformaldehyde (Electron Microscopy Sciences #15710-S) directly to the 50 μL media and compound in the cell plate. Cell plate was incubated at RT for 20 minutes. Well contents were aspirated and washed with 100 μL/well PBS 3 times. 50 ul/well of phosphate Buffered Saline (PBS) (pH 7.5) containing 0.5% w/v bovine serum albumen, 0.5% w/v Triton X-100 (Block/Permeabilization Buffer) was added to each well. Samples were incubated for 20 minutes. Well contents were aspirated and washed 3 times with 100 μL/well of PBS. PBS was aspirated from the well and 50 μL per well of EoL-1 Block Buffer (PBS containing 10% Normal Goat Serum (AbCam #ab7481)) was added to each well. Plates were incubated at room temperature for 30 minutes. Block buffer was decanted from the wells. Immunofluorescence staining of BRD4 was carried out by diluting mAB Anti-BRD4 [EPR5150] antibody (Abcam 128874) 1:500 into Antibody Dilution Buffer (PBS, 2% Normal Goat Serum). 25 μL per well of BRD4 antibody diluted in buffer was added and incubated overnight at 4° C.
# On day-2 samples were washed 3 times with 100 μL/well of PBS. 25 μL/well of secondary antibody solution (Goat Anti-Rabbit IgG, DyLight 488 Conjugated Highly Cross-adsorbed Thermo Fisher #35553) and Hoechst 33342 1 μg/ml diluted in Antibody Dilution Buffer) were dispensed into each well. Hoechst 33342 only was added to bottom 3 columns for data normalization as “inhibitor controls”. Samples were incubated for 2 hours at room temperature. Samples were washed 3 times with 100 μL PBS. Quantitative fluorescence imaging of BRD4 was carried out using an Opera Phenix High-Content Screening System. Fluorescent images of the samples were captured using 488 nm and 405 nm channels. Hoechst channel was used to identify nuclear region. Mean 488 intensity of BRD4 quantitated in nuclear region. Data analysis was carried out using Genedata Screener, with DMSO and no primary antibody control treated samples being used to define the 0% and 100% changes in BRD4. The dose-response log(inhibitor) vs. response used to define the inflexion point of curve (DC50) and the plateau of the maximal effect.
# The individual topological polar surface area (TPSA) and cLogP values were calculated using Chemdraw v. 15.1 (PerkinElmer). Half life of the ternary VHL/BD1 and VHL/BD2 complexes, DC50 of BRD4 in EOL1 cells, topological polar surface area of a molecule (TPSA) and c log P (lipophilicity) for compounds described herein are provided in Table 3.
row,DC50 [µM],SMILES
1,> 20,Cc1ncsc1-c1ccc([C@@H]2NC(=O)[C@@H]3C[C@@H](O)CN3C(=O)[C@H](C(C)(C)C)NC(=O)CSC[C@H](C(N)=O)NC(=O)[C@@H](CCNC(=O)C[C@@H]3N=C(c4ccc(Cl)cc4)c4c(sc(C)c4C)-n4c(C)nnc43)NC(=O)CNC2=O)cc1 [Compound 10] ({CH2CO}-[Tle][Hyp][Phg(4-(4-Me-thiazol-5-yl))]G[dDab](JQ1acid)[dC]-NH2; thioether N-6)
2,> 20,Cc1ncsc1-c1ccc([C@H]2NC(=O)[C@@H]3C[C@@H](O)CN3C(=O)[C@H](C(C)(C)C)NC(=O)CSC[C@H](C(=O)NCC(=O)NCC(=O)NCC(N)=O)NC(=O)[C@@H](CNC(=O)C[C@@H]3N=C(c4ccc(Cl)cc4)c4c(sc(C)c4C)-n4c(C)nnc43)NC(=O)CNC2=O)cc1 [Compound 11] ({CH2CO}-[Tle][Hyp][dPhg(4-(4-Me-thiazol-5-yl))]G[dDap](JQ1acid)[dC]GGG-NH2; thioether N-6)
3,> 20,Cc1ncsc1-c1ccc([C@H]2NC(=O)[C@@H]3C[C@@H](O)CN3C(=O)[C@H](C(C)(C)C)NC(=O)CSC[C@H](C(N)=O)NC(=O)[C@@H](CNC(=O)C[C@@H]3N=C(c4ccc(Cl)cc4)c4c(sc(C)c4C)-n4c(C)nnc43)NC(=O)[C@H](C)NC2=O)cc1 [Compound 12] ({CH2CO}-[Tle][Hyp][dPhg(4-(4-Me-thiazol-5-yl))]A[dDap](JQ1acid)[dC]-NH2; thioether N-6)
4,> 20,Cc1ncsc1-c1ccc([C@H]2NC(=O)[C@@H]3C[C@@H](O)CN3C(=O)[C@H](C(C)(C)C)NC(=O)CSC[C@H](C(N)=O)NC(=O)[C@H](CNC(=O)C[C@@H]3N=C(c4ccc(Cl)cc4)c4c(sc(C)c4C)-n4c(C)nnc43)NC(=O)CNC2=O)cc1 [Compound 13] ({CH2CO}-[Tle][Hyp][dPhg(4-(4-Me-thiazol-5-yl))]G[Dap](JQ1acid)[dC]-NH2; thioether N-6)
5,> 20,Cc1ncsc1-c1ccc([C@@H]2NC(=O)[C@@H]3C[C@@H](O)CN3C(=O)[C@H](C(C)(C)C)NC(=O)CSC[C@H](C(N)=O)NC(=O)[C@H](CNC(=O)C[C@@H]3N=C(c4ccc(Cl)cc4)c4c(sc(C)c4C)-n4c(C)nnc43)NC(=O)CNC2=O)cc1 [Compound 14] ({CH2CO}-[Tle][Hyp][Phg(4-(4-Me-thiazol-5-yl))]G[Dap](JQ1acid)[dC]-NH2; thioether N-6)
6,< 20,Cc1ncsc1-c1ccc([C@H]2NC(=O)[C@@H]3C[C@@H](O)CN3C(=O)[C@H](C(C)(C)C)NC(=O)CSC[C@H](C(N)=O)N(C)C(=O)[C@@H](CNC(=O)C[C@@H]3N=C(c4ccc(Cl)cc4)c4c(sc(C)c4C)-n4c(C)nnc43)NC(=O)CNC2=O)cc1 [Compound 15] ({CH2CO}-[Tle][Hyp][dPhg(4-(4-Me-thiazol-5-yl))]G[dDap](JQ1acid)[dNMeC]-NH2; thioether N-6)
7,< 1,Cc1sc2c(c1C)C(c1ccc(Cl)cc1)=N[C@@H](CC(=O)NC[C@H]1NC(=O)CNC(=O)[C@@H](Cc3ccc(-c4ccccc4)cc3)NC(=O)[C@@H]3C[C@@H](O)CN3C(=O)[C@H](C(C)(C)C)NC(=O)CSC[C@H](C(N)=O)NC1=O)c1nnc(C)n1-2 [Compound 18] ({CH2CO}-[Tle][Hyp][dBip]G[dDap](JQ1acid)[dC]-NH2; thioether N-6)
8,< 20,Cc1sc2c(c1C)C(c1ccc(Cl)cc1)=N[C@@H](CC(=O)NC[C@H]1NC(=O)CNC(=O)[C@H](Cc3ccc(-c4ccccc4)cc3)NC(=O)[C@@H]3C[C@@H](O)CN3C(=O)[C@H](C(C)(C)C)NC(=O)CSC[C@H](C(N)=O)NC1=O)c1nnc(C)n1-2 [Compound 19] ({CH2CO}-[Tle][Hyp][Bip]G[dDap](JQ1acid)[dC]-NH2; thioether N-6)
9,< 1,Cc1sc2c(c1C)C(c1ccc(Cl)cc1)=N[C@@H](CC(=O)NC[C@H]1NC(=O)CNC(=O)[C@H](Cc3ccc(Br)s3)NC(=O)[C@@H]3C[C@@H](O)CN3C(=O)[C@H](C(C)(C)C)NC(=O)CSC[C@H](C(N)=O)NC1=O)c1nnc(C)n1-2 [Compound 20] ({CH2CO}-[Tle][Hyp][X7]G[dDap](JQ1acid)[dC]-NH2; thioether N-6)
10,> 20,CC(=O)N1c2ccc(-c3ccc(C(=O)NC[C@H]4NC(=O)CNC(=O)[C@@H](c5ccc(-c6scnc6C)cc5)NC(=O)[C@@H]5C[C@@H](O)CN5C(=O)[C@H](C(C)(C)C)NC(=O)CSC[C@H](C(N)=O)NC4=O)cc3)cc2[C@H](Nc2ccc(Cl)cc2)C[C@@H]1C [Compound 21] ({CH2CO}-[Tle][Hyp][dPhg(4-(4-Me-thiazol-5-yl))]G[dDap](X11)[dC]-NH2; thioether N-6)
11,> 20,Cc1ncsc1-c1ccc([C@H]2NC(=O)[C@@H]3C[C@@H](O)CN3C(=O)[C@H](C(C)(C)C)NC(=O)CSC[C@H](C(N)=O)NC(=O)[C@@H](CNC(=O)c3cc4c(cc3CS(C)(=O)=O)-c3cn(C)c(=O)c5[nH]cc(c35)CN4c3ncc(F)cc3F)NC(=O)CNC2=O)cc1 [Compound 22] ({CH2CO}-[Tle][Hyp][dPhg(4-(4-Me-thiazol-5-yl))]G[dDap](X14)[dC]-NH2; thioether N-6)
12,< 1,Cc1sc2c(c1C)C(c1ccc(Cl)cc1)=N[C@@H](CC(=O)NC[C@H]1NC(=O)CNC(=O)[C@@H](Cc3ccc(Br)s3)NC(=O)[C@@H]3C[C@@H](O)CN3C(=O)[C@H](C(C)(C)C)NC(=O)CSC[C@H](C(N)=O)NC1=O)c1nnc(C)n1-2 [Compound 23] ({CH2CO}-[Tle][Hyp][X5]G[dDap](JQ1acid)[dC]-NH2; thioether N-6)
13,> 20,COc1ccc(C[C@@H]2NC(=O)[C@@H]3C[C@@H](O)CN3C(=O)[C@H](C(C)(C)C)NC(=O)CSC[C@H](C(N)=O)NC(=O)[C@@H](CNC(=O)C[C@@H]3N=C(c4ccc(Cl)cc4)c4c(sc(C)c4C)-n4c(C)nnc43)NC(=O)CNC2=O)cc1 [Compound 24] ({CH2CO}-[Tle][Hyp]Y(Me)G[dDap](JQ1acid)[dC]-NH2; thioether N-6)
14,< 20,Cc1ncsc1-c1ccc([C@H]2NC(=O)[C@@H]3C[C@@H](O)CN3C(=O)[C@H](C(C)(C)C)NC(=O)CSC[C@H](C(N)=O)NC(=O)[C@H]3CN(C(=O)C[C@@H]4N=C(c5ccc(Cl)cc5)c5c(sc(C)c5C)-n5c(C)nnc54)CCN3C(=O)CNC2=O)cc1 [Compound 25] ({CH2CO}-[Tle][Hyp][dPhg(4-(4-Me-thiazol-5-yl))]G[X4](JQ1acid)[dC]-NH2; thioether N-6)
15,< 1,Cc1ncsc1-c1ccc([C@H]2NC(=O)[C@@H]3C[C@@H](O)CN3C(=O)[C@H](C(C)(C)C)NC(=O)CSC[C@H](C(N)=O)NC(=O)[C@@H](CNC(=O)C[C@@H]3N=C(c4ccc(Cl)cc4)c4c(sc(C)c4C)-n4c(C)nnc43)NC(=O)[C@@H](C)NC2=O)cc1 [Compound 26] ({CH2CO}-[Tle][Hyp][dPhg(4-(4-Me-thiazol-5-yl))][dA][dDap](JQ1acid)[dC]-NH2; thioether N-6)

row,SMILES,DC50 [µM]
1,Cc1ncsc1-c1ccc([C@H]2NC(=O)[C@@H]3C[C@@H](O)CN3C(=O)[C@H](C(C)(C)C)NC(=O)COCCNC(=O)[C@@H](CNC(=O)C[C@@H]3N=C(c4ccc(Cl)cc4)c4c(sc(C)c4C)-n4c(C)nnc43)NC(=O)CNC2=O)cc1 [Compound 16] (cyclo([AEA][Tle][Hyp][dPhg(4-(4-Me-thiazol-5-yl))]G[dDap](JQ1acid))),< 1
2,Cc1ncsc1-c1ccc([C@@H]2NC(=O)[C@@H]3C[C@@H](O)CN3C(=O)[C@H](C(C)(C)C)NC(=O)COCCNC(=O)[C@@H](CNC(=O)C[C@@H]3N=C(c4ccc(Cl)cc4)c4c(sc(C)c4C)-n4c(C)nnc43)NC(=O)CNC2=O)cc1 [Compound 17] (cyclo([AEA][Tle][Hyp][Phg(4-(4-Me-thiazol-5-yl))]G[dDap](JQ1acid))),< 1
3,Cc1ncsc1-c1ccc([C@H]2NC(=O)[C@@H]3C[C@H](O)CN3C(=O)[C@H](C(C)(C)C)NC(=O)CSC[C@H](C(N)=O)NC(=O)[C@@H](CNC(=O)C[C@@H]3N=C(c4ccc(Cl)cc4)c4c(sc(C)c4C)-n4c(C)nnc43)NC(=O)CNC2=O)cc1 [Compound 27] ({CH2CO}-[Tle][cisHyp][dPhg(4-(4-Me-thiazol-5-yl))]G[dDap](JQ1acid)[dC]-NH2; thioether N-6),> 20
